The source made the active and inactive calls.
Experiments:
[1] = biological target: T1, Short transient receptor potential channel 4 (Mus musculus, UniProt Q9QUQ5); experiment: mouse TRPC4 channel inhibitors, dose response, cell-based, HEK293 TRPC4/mu-opioid, Fluo-4 calcium (AID 434942); assay type: functional;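 also: potency of inhibitors blocking the TRPC4 calcium response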
T1 sequence (Q9QUQ5 whole entry): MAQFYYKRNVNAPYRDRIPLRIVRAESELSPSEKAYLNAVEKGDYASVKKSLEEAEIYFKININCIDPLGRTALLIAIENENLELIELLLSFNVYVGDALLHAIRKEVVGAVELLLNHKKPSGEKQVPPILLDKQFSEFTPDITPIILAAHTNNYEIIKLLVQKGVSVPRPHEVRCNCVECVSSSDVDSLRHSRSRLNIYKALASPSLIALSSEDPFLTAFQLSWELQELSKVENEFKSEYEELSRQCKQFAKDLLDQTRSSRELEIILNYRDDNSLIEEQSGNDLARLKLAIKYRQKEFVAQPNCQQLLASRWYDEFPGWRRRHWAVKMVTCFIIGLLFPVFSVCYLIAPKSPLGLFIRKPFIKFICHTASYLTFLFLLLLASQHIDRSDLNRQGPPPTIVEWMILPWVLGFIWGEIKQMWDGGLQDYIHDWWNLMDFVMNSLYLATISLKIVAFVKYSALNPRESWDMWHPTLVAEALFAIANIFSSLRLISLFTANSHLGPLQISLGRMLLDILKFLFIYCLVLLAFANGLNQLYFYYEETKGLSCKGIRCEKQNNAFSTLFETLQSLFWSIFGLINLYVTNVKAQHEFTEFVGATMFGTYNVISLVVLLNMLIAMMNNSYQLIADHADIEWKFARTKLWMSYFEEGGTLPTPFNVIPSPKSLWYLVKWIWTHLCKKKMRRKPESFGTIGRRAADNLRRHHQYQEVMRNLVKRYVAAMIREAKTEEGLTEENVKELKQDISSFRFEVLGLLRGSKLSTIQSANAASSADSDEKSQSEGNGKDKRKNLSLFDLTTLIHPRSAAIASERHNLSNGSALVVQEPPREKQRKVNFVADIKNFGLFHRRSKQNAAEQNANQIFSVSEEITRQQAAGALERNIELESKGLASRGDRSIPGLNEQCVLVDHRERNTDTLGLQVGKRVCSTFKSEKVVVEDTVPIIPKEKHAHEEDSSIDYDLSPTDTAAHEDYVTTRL

[2] = biological target: Delta-type opioid receptor (Homo sapiens, UniProt P41143); experiment: Counterscreen for agonists of heterodimerization of the mu 1 (OPRM1) and delta 1 (OPRD1) opioid receptors: Luminescence-based cell-based high throughput dose response assay to identify agonists of OPRD1 homodimerization. [Related pubchem assays (depositor defined):AID504326, AID504355, AID504692, AID504904, AID504905]; assay type: functional
Mu-type opioid receptor = Mu-type opioid receptor (Homo sapiens, UniProt P35372); experiment: Counterscreen for agonists of heterodimerization of the mu 1 (OPRM1) and delta 1 (OPRD1) opioid receptors: Luminescence-based cell-based high throughput dose response assay to identify agonists of OPRM1 homodimerization.; assay type: functional;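 also: U2OS cells expressing OPRM1 and beta-arrestin as split beta-galactosidase partners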
[3] = biological target: 5-hydroxytryptamine receptor 5A (Homo sapiens, UniProt P47898); experiment: Counterscreen for agonists of OPRM1-OPRD1 heterodimerization: luminescence-based cell-based high throughput dose response assay to identify agonists of 5-hydroxytryptamine (serotonin) 5A receptor (HTR5A). [Related pubchem assays (depositor defined):AID504326, AID504355, AID504692, AID504904, AID504905]; assay type: functional
[4] = biological target: T2, Calpain-2 catalytic subunit (Sus scrofa, UniProt P43367); experiment: pig calpain II inhibitor potency, dose response, biochemical, fluorogenic peptide substrate (AID 1420); assay type: functional
T2 sequence (P43367 whole entry): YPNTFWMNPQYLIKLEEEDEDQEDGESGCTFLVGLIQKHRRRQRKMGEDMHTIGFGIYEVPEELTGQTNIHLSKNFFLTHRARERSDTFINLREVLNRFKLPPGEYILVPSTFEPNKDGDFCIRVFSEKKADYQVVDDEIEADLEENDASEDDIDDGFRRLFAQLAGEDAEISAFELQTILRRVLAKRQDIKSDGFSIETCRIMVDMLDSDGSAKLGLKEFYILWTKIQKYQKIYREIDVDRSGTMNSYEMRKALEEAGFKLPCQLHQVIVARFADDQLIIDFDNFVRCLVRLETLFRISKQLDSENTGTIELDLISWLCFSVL

Streptococcus = experiment: Group A Streptococcus viability loss, dose response, counter-screen for streptokinase expression inhibitor project, luminescence, BacTiterGlo (AID 1915); assay type: functional, organism-based;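 also: potency for reduction of bacterial viability or growth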
Vero = experiment: cells; assay type: functional; details: Chlorocebus sabaeus
[5] = biological target: Heat shock protein HSP 90-alpha (Homo sapiens, UniProt P07900); assay type: functional, organism-based
Streptokinase A = biological target: T3, Streptokinase A (Streptococcus pyogenes serotype M1, UniProt P10520); experiment: S. pyogenes streptokinase expression inhibitors, potency, dose response, plasminogen activation absorbance, OD405 (AID 1914); assay type: functional, Streptococcus pyogenes M1 GAS;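 also: secreted streptokinase activity via plasminogen activation per viability signal from cell pellet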
T3 sequence (P10520 whole entry): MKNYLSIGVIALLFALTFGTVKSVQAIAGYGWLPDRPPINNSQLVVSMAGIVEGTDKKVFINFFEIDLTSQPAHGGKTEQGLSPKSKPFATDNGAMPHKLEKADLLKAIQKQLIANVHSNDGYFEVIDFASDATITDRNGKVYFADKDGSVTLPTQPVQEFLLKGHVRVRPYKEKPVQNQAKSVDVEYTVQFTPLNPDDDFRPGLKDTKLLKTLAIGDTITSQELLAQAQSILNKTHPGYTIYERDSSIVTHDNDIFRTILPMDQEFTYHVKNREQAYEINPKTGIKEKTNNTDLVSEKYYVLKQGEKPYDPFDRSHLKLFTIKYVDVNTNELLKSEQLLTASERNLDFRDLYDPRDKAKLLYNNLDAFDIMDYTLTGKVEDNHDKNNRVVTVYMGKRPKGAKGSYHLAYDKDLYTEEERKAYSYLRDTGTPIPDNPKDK

[6] = cytotoxicity in MIN6 insulinoma cells, dose response, cytotoxicity control, cell-based, mouse insulinoma (AID 2122); assay type: functional;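 also: confirmatory high-throughput counterscreen run to flag cytotoxic compounds; mouse MIN-6 beta cells carrying an insulin promoter eGFP reporter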
[7] = insulin promoter down-regulators in MIN6 cells, imaging, high-content screening, mouse beta cells (AID 1628); assay type: functional
[8] = biological target: T4, Long-chain-fatty-acid--AMP ligase FadD28 (Mycobacterium tuberculosis, UniProt P9WQ59); experiment: Fluorescence polarization aasay to screen for inhibitors that compete for the binding of FadD28 to a bisubstrate Measured in Biochemical System Using Plate Reader - 2147-01_Inhibitor_Dose_CherryPick_Activity.; assay type: functional, Mycobacterium tuberculosis H37Rv
T4 sequence (P9WQ59 whole entry): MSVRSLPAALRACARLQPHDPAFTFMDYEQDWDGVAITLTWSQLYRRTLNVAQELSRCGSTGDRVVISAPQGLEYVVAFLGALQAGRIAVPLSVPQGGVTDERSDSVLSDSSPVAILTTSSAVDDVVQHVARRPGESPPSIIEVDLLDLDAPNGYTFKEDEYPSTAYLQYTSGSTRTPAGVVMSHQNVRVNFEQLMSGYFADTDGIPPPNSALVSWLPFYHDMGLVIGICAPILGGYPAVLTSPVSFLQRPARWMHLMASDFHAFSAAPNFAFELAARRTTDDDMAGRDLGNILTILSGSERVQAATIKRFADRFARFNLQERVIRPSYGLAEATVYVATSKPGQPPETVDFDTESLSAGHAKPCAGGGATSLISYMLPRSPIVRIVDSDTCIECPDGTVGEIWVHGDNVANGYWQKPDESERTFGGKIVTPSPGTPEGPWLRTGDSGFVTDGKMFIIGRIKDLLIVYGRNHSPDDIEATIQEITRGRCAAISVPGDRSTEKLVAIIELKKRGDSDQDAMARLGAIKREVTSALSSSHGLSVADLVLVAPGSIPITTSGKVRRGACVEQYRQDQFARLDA

[9] = biological target: T5, Lysine-specific demethylase 4C (Homo sapiens, UniProt Q9H3R0); experiment: GASC-1 (JMJD2C) histone demethylase inhibitors, dose response, biochemical, DELFIA europium, cherry-picked samples (AID 488835); assay type: functional
T5 sequence (Q9H3R0 whole entry): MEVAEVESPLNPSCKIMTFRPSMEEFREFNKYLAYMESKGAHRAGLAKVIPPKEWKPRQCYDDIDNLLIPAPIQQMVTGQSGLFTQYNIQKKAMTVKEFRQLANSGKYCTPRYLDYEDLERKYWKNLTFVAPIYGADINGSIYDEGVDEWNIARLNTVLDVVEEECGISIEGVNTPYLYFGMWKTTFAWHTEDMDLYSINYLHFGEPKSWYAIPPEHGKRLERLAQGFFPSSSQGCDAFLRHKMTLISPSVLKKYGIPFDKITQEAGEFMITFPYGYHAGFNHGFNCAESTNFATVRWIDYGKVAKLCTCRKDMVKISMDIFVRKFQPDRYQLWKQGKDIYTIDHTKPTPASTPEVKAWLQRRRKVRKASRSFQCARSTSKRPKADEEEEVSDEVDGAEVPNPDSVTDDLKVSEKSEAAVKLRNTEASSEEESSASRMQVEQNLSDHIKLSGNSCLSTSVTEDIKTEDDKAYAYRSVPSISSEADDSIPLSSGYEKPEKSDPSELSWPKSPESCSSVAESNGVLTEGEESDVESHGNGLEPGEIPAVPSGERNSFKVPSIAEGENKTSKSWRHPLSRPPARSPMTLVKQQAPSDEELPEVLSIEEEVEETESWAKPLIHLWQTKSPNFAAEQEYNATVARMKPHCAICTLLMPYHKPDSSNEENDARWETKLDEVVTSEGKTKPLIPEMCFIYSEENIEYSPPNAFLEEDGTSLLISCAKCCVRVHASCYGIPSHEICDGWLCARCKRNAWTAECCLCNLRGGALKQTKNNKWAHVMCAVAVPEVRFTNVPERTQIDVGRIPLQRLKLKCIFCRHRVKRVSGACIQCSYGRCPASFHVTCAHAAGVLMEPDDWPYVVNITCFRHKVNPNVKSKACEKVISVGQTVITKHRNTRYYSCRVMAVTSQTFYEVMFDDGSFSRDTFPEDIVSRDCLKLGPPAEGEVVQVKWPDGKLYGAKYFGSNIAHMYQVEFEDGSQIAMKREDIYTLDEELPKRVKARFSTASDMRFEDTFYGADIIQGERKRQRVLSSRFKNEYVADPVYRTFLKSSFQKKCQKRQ

Large T antigen = Large T antigen (Simian virus 40, UniProt P03070); assay type: functional, Betapolyomavirus macacae;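 also: Confirmatory-stage PubChem screen for compounds that inhibit SV40 T antigen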
[10] = biological target: E3 ubiquitin-protein ligase Mdm2 (Homo sapiens, UniProt Q00987); experiment: enhancers of MDM2-luciferase reporter signal, concentration-effect titration, project on inhibitors of MDM2 ubiquitin ligase, cellular assay, luminescent readout, 384-well plate format (AID 1394); assay type: functional;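 also: MDM2 E3 inhibitors raise luminescence so EC50 is for signal enhancement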
Escherichia coli = experiment: microbe, parasite or virus in culture

Delta-type opioid receptor, sequence (P41143 whole entry): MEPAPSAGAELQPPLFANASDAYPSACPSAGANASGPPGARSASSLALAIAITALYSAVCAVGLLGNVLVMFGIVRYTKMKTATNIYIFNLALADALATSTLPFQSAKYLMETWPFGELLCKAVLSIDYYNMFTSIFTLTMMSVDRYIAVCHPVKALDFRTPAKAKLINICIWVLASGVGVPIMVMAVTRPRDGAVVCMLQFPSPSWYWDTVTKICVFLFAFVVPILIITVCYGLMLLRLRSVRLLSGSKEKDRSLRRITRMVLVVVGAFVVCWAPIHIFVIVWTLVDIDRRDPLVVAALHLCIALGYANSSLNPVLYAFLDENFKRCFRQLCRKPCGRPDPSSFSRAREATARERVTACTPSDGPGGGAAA
Mu-type opioid receptor, sequence (P35372 whole entry): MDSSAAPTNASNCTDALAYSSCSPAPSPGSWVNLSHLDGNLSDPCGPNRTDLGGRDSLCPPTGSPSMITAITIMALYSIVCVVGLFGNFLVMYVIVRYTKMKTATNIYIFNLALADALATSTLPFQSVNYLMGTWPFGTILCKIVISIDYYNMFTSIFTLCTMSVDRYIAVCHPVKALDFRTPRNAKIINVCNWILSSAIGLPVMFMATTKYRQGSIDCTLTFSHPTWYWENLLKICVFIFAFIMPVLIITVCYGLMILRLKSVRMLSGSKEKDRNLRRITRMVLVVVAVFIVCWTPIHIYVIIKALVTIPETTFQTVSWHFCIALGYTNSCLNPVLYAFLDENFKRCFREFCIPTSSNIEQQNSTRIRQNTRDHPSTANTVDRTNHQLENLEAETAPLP
Large T antigen, sequence (P03070 whole entry): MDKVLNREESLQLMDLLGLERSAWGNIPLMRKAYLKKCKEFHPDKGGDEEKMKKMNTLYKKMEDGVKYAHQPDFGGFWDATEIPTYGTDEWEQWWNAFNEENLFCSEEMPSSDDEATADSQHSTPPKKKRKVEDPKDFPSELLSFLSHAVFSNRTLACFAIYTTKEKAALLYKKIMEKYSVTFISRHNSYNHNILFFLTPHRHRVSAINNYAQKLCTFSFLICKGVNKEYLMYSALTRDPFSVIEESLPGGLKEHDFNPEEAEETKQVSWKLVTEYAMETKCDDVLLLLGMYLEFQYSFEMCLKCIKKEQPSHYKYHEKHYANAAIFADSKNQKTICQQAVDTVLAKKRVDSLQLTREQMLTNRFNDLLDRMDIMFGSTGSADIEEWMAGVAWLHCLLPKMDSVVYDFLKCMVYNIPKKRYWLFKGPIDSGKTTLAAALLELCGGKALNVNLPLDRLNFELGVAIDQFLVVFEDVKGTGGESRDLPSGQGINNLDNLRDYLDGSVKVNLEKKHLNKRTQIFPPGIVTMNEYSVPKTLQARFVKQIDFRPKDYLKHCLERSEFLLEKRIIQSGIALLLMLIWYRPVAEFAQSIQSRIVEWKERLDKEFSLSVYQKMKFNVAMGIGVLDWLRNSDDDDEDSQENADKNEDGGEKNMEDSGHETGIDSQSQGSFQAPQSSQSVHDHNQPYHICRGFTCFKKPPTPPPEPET
5-hydroxytryptamine receptor 5A, sequence (P47898 whole entry): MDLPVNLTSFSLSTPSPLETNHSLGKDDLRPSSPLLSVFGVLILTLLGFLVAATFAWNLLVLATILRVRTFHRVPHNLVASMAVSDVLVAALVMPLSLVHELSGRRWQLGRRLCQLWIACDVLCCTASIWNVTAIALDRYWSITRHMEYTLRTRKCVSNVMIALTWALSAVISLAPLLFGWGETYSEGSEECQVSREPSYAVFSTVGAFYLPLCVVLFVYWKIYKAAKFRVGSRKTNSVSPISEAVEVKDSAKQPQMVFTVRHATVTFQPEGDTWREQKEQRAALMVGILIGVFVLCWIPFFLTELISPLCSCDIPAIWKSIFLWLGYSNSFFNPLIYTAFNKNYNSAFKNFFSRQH
E3 ubiquitin-protein ligase Mdm2, sequence (Q00987 whole entry): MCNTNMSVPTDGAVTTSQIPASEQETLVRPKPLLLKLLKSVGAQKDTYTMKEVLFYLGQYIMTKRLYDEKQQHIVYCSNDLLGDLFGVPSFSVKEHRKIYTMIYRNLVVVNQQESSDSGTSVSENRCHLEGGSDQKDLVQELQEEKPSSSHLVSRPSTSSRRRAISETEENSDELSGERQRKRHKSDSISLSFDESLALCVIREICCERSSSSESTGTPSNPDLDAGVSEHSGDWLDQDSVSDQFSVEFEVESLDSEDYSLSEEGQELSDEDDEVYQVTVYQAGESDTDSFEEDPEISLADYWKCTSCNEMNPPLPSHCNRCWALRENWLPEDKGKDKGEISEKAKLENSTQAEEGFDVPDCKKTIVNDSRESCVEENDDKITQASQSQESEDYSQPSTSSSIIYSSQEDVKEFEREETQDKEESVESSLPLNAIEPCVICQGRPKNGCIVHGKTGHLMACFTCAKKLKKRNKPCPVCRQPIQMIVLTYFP

CN(C)C(CNC(=O)c1cccc(C(F)(F)F)c1)c1ccco1 (stereo unspecified)
EC50 [1]: 0.376 µM (active)
EC50 [2]: > 92.4 µM (inactive)
EC50 (Mu-type opioid receptor): > 92.4 µM (inactive)
EC50 [3]: > 92.4 µM (inactive)

CCCc1ccc(Oc2c[nH]nc2-c2ccc(O)c(C)c2O)cc1
IC50 [4]: 38.2 µM (not active)
EC50 (Streptococcus): 8.83 µM (active)
CC50 (Vero): > 25 µM (active)
AC50 [5]: 3.08 µM (active)
EC50 (Streptokinase A): > 150 µM (not active)

Cn1c(=O)c2c(nc(NCc3ccc4c(c3)OCO4)n2Cc2ccccc2)n(C)c1=O
IC50 [6]: 0.541 µM (active)
IC50 [7]: 0.696 µM (active)

CCN1C(=O)C(=C/C=C/c2ccco2)C(=O)N(CC)C1=S
AC50 [8]: > 100 µM (inactive)
AC50 [9]: 1.18 µM (active)
IC50 (Large T antigen): 45.3 µM (active)
EC50 [10]: 25 µM (not active)

Cc1nc(SCc2ccc(C(=O)O)cc2)c2c(C)c(C)sc2n1
AC50 (Escherichia coli): 28.5 µM (active)

Source: ChEMBL document CHEMBL1201862, “PubChem BioAssay data set” (2004)
